Like-named read-outs stand apart in the source and are kept apart here.
Legend:
[1] = target: T1, cloned recombinant human HDAC-1 (Homo sapiens, UniProt Q13547); test: Human HDAC-1 enzyme inhibition, Assay 1 ([3H]-acetylated histone substrate, scintillation counting); format: biochemical
T1 construct: made in house; host or cells: Baculovirus insect cell expression system
Summary of the method: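 Activity read as [3H]-acetic acid liberated from labeled substrate, ethyl acetate-extracted and scintillation-counted. Compounds preincubated 30 min at 4° C. with baculovirus-expressed, purified human HDAC-1. Dose-response curves give IC50 as concentration producing fifty percent of maximal inhibition.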

[2] = system: HCT116 cells; test: MTT assay; format: cell-based; conditions: Homo sapiens, HCT116 cells, 72 hours
Summary of the method: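 Read-out: MTT (0.5 mg/ml final, 4 h) after solubilization in 50% DMF/20% SDS, pH 4.7, with OD translated into cell number via the line's growth curve. Compound treatment lasted 72 h at 37 °C in 5% CO2, starting a day after plating.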

[3] = system: acetylated histone H-4 in T24 human bladder cancer cells; test: Histone H4 acetylation in whole cells by immunoblots; format: cell-based; conditions: 16 h
Method: T24 human bladder cancer cells growing in culture were incubated with HDAC inhibitors for 16 h. […] of total histone protein was loaded onto SDS/PAGE and transferred to nitrocellulose membranes. Membranes were probed with polyclonal antibodies specific for acetylated histone H-4 (Upstate Biotech Inc.), followed by horse radish peroxidase conjugated secondary antibodies (Sigma). Enhanced Chemiluminescence (ECL) (Amersham) detection was performed using Kodak films (Eastman Kodak). Acetylated H-4 signal was quantified by densitometry.

[4] = Table 5F, read-out: Human HDAC-1 IC50
[5] = T-24, Table 5F, read-out: H4 Ac (T24) EC50
[6] = Table 5d, read-out: HDAC-1 IC50
[7] = T-24, Table 5d, read-out: H4Ac(T24) EC50
[8] = Table 5a, read-out: Human HDAC-1 IC50
[9] = T-24, Table 5a, read-out: H4Ac (T24) EC50

T1 sequence (Q13547 whole entry): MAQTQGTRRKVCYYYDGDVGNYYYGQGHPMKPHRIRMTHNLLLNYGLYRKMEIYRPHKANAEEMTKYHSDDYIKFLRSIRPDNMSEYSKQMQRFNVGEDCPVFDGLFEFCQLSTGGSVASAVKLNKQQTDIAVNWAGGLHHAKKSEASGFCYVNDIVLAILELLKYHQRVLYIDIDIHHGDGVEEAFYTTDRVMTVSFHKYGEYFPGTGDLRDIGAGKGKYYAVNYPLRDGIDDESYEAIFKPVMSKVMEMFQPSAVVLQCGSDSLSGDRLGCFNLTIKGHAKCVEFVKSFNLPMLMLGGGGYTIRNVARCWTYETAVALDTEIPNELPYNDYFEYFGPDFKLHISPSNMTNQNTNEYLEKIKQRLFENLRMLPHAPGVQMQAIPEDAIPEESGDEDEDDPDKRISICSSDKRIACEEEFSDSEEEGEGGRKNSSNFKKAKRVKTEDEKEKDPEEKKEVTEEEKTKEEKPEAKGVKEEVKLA

SMILES	IC50 [1, 4]	IC50 ([2]; HCT-116, 72 h, Table 5F)	EC50 [3, 5]	also measured
COc1ccc(Cn2c(=O)n(Cc3ccc(C(=O)Nc4ccccc4N)cc3)c(=O)c3ccccc32)cc1 [Cpd 345, N-(2-Amino-phenyl)-4-[1-(4-methoxy-benzyl)-2,4-dioxo-1,4-dihydro-2H-quinazolin-3-ylmethyl]-benzamide]	0.4 µM	0.8 µM	1 µM	
COc1cc(C#N)c(NCc2ccc(C(=O)Nc3ccccc3N)cc2)cc1OC [Cpd 404]	3 µM	0.6 µM	5 µM	
CN(C)CCn1c(=O)n(Cc2ccc(C(=O)Nc3ccccc3N)cc2)c(=O)c2ccccc21 [Cpd 340, N-(2-Amino-phenyl)-4-[1-(2-dimethylamino-ethyl)-2,4-dioxo-1,4-dihydro-2H-quinazolin-3-ylmethyl]-benzamide]	2 µM	1 µM	1 µM	
CCCCn1cnc2c(NCc3ccc(C(=O)Nc4ccccc4N)cc3)nc(N)nc21 [Cpd 330, 4-[(2-Amino-9-butyl-9H-purin-6-ylamino)-methyl]-N-(2-amino-phenyl)-benzamide]	3 µM	2 µM	1 µM	
COc1cc(N(Cc2ccc(/C=C/C(=O)Nc3ccccc3N)cc2)Cc2cc3ccccc3[nH]2)cc(OC)c1OC [Cpd 499, N-(2-Amino-phenyl)-3-{4-([(1 H-indol-2-ylmethyl)-(3,4,5-trimethoxy-phenyl)-amino]-methyl}-phenyl)-acrylamide]				IC50 [1, 6]: > 25 µM; IC50 ([2]; HCT-116, Table 5d): 2 µM; EC50 [3, 7]: > 25 µM
Nc1nc(NCCc2ccccc2F)nc(NCc2ccc(C(=O)Nc3ccccc3N)cc2)n1 [Cpd 24, 4-({4-Amino-6-[2-(2-fluoro-phenyl)-ethylamino]-[1,3,5]triazin-2-ylamino)-methyl)-N-(2-amino-phenyl)-benzamide]				IC50 [1, 8]: 3 µM; IC50 ([2]; HCT-116, 72 h, Table 5a): 0.6 µM; EC50 [3, 9]: 1 µM
Nc1nc(CC(=O)N2CCN(Cc3ccc4c(c3)OCO4)CC2)nc(NCc2ccc(C(=O)Nc3ccccc3N)cc2)n1 [18b]				IC50 [1, 8]: 0.6 µM; IC50 ([2]; HCT-116, 72 h, Table 5a): 5 µM; EC50 [3, 9]: 10 µM
Cc1cc(Cl)nc(NCc2ccc(C(=O)Nc3ccccc3N)cc2)n1 [Cpd 418, N-(2-Amino-phenyl)-4-[(4-chloro-6-methyl-pyrimidin-2-ylamino)-methyl]-benzamide]	3 µM	0.9 µM	2 µM	
Nc1ccccc1NC(=O)c1ccc(CNc2cccc(F)n2)cc1 [Cpd 349]	13 µM	1 µM	3 µM	
Nc1ccccc1NC(=O)c1ccc(CNc2ncnc(NCCc3ccccc3)n2)cc1 [Cpd 210]				IC50 ([1]; Table 5b, read-out: Human HDAC-1 IC50): 3 µM; IC50 ([2]; HCT-116, 72 h, Table 5b): 0.9 µM; EC50 ([3]; T-24, Table 5b, read-out: H4Ac (T24) EC50): 1 µM
COc1cc2ncn(Cc3ccc(C(=O)Nc4ccccc4N)cc3)c(=O)c2cc1OC [Cpd 338, N-(2-Amino-phenyl)-4-(6,7-dimethoxy-4-oxo-4H-quinazolin-3-ylmethyl)-benzamide]	2 µM	0.5 µM	3 µM	
COc1cc(NC(C)c2ccc(/C=C/C(=O)Nc3ccccc3N)cc2)cc(OC)c1OC (stereo not drawn) [Cpd 518, N-(2-Amino-phenyl)-3-{4-[1-(3,4,5-trimethoxy-phenylamino)-ethyl]-phenyl}-acrylamide]				IC50 [1, 6]: 4 µM; IC50 ([2]; HCT-116, Table 5d): 2 µM; EC50 [3, 7]: 5 µM
Nc1ccccc1NC(=O)c1ccc(CSc2nc3ccc(NCc4ccccn4)cc3s2)cc1 [Cpd 326, N-(2-Amino-phenyl)-4-{6-[(pyridin-2-ylmethyl)-amino]-benzothiazol-2-ylsulfanylmethyl}-benzamide]	1 µM	1 µM	3 µM	
Nc1ccccc1NC(=O)c1ccc(Cn2c(=O)[nH]c3ccsc3c2=O)cc1 [Cpd 343, N-(2-Amino-phenyl)-4-(2,4-dioxo-1,4-dihydro-2H-thieno[3,2-d]pyrimidin-3-ylmethyl)-benzamide]	0.5 µM	0.3 µM	1 µM	
Nc1nc(NCc2ccc(C(=O)Nc3ccccc3N)cc2)nc(N2CCc3ccccc32)n1 [Cpd 22, 4-{[4-Amino-6-(2,3-dihydro-indol-1-yl)-[1,3,5]triazin-2-ylamino]-methyl}-N-(2-amino-phenyl)-benzamide]				IC50 [1, 8]: 3 µM; IC50 ([2]; HCT-116, 72 h, Table 5a): 0.8 µM; EC50 [3, 9]: 1 µM
